From PubChem BioAssay AID463203 (Broad Institute, 2010)
Activity calls are given as the source filed them.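 Rule for the calls: active = more than half of replicate measurements showing over 20% loss of kinase signal relative to plate controls; inconclusive = some but at most half of replicates over 20% loss; inactive = no replicate over 20% signal loss.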

Target: Glycogen synthase kinase-3 alpha (Homo sapiens) (UniProt P49840)
Assay: concentration-response blocking of human GSK3A – biochemical, luminescence, cell-free homogeneous, retest, dose response (AID 463203)
Settings: GSK-3 alpha enzyme, ADP-Glo luminescence, 60 min

Sequence of Glycogen synthase kinase-3 alpha (Homo sapiens) (P49840 whole entry, looked up): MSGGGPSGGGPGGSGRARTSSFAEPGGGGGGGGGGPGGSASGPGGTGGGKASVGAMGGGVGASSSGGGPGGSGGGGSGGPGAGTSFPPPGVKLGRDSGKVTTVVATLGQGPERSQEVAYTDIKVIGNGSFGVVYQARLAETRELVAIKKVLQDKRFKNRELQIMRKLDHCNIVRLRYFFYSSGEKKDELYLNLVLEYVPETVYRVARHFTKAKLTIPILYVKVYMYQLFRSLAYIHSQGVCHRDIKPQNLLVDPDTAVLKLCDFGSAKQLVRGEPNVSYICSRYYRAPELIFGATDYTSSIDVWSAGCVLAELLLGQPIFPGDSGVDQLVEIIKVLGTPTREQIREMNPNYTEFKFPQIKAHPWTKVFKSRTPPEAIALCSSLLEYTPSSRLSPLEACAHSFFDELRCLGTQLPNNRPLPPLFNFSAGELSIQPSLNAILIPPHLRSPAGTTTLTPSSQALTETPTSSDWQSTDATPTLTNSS

| SMILES | AC50 |
| --- | --- |
| COC(=O)c1c(NC(=O)CN2C(=O)NC3(CCC(C)CC3)C2=O)sc2c1CCC2 (stereo not drawn) | > 30 µM (inactive) |
| O=c1[nH]c(=S)n(Cc2ccc(F)cc2)c(O)c1C=NCCCn1ccnc1 | > 30 µM (inactive) |
| CN(C)C(=O)Oc1ccc(OC(=O)N(C)C)cc1 | > 30 µM (inactive) |
| NC(=O)c1cn(C2OC(CO)C(O)C2O)c2ncnc(N)c12 (stereo not drawn) | 6.52 µM |
| Cc1nc(SCC(=O)NCC2CCCO2)c2c3c(sc2n1)CCCC3 (stereo not drawn) | > 30 µM (inactive) |
| Cc1ccc(S(=O)(=O)N2CCN(CC(=O)N/N=C\c3ccccn3)CC2)cc1 | > 30 µM (inactive) |
| COc1cc(/C=C2/NC(=O)NC2=O)cc(Br)c1OCc1cccc(C(=O)O)c1 | 6.54 µM |
| CC(C)OC(=O)/C(C#N)=C/c1c[nH]c2ccccc12 | > 30 µM (inactive) |
| CC(=O)c1c(O)cc(O)cc1CC(=O)O | > 30 µM (inactive) |
| Cc1ccc(NC(=O)CSc2nnc(-c3ccncc3)s2)cc1 | > 30 µM (inactive) |
| COC(=O)CSc1nc(NCC(C)C)nc(N2CCOCC2)n1 | > 30 µM (inactive) |
| Nc1nc2n(n1)C(c1ccc(F)cc1)CC(c1ccc(F)cc1)N2 (stereo not drawn) | > 30 µM (inactive) |
| COc1ccccc1NC(=O)CSc1nnc(-c2ccc(C)cc2)o1 | > 30 µM (inactive) |
| COC(=O)c1cnn(C(=O)c2ccccc2Br)c1N | > 30 µM (inactive) |
| CC1(C)CC(=O)C(C=Nc2ccc(O)cc2)=C(O)C1 | > 30 µM (inactive) |
| CCCCCCCCCCOC(=O)Cn1c(COc2ccc(OC)cc2)[n+](C)c2ccccc21 | > 30 µM (inactive) |
| CCN1CCN(c2c(Cl)cccc2NC(=O)c2ccc(Br)o2)CC1 | 2.59 µM |
| COc1ccc(-c2ncncc2-c2ccccc2)c(O)c1 | 13.2 µM |
| O=C(CSCc1ccc([N+](=O)[O-])cc1)NN=C1CCCCCC1 | > 30 µM (inactive) |
| O=C(O)c1ccc(N=Nc2c(O)[nH]c3ccc(Br)cc23)cc1 | 3.54 µM |
| O=C1NC(=Nc2ccccc2Cl)S/C1=C\c1cccc([N+](=O)[O-])c1O | 24 µM |
| COC(=O)c1ccc(CN2C(=O)NC(CC(C)C)C2=O)cc1 (stereo not drawn) | > 30 µM (inactive) |
| COc1ccc(Cl)cc1C(=O)Nc1ccc(NC(=O)c2ccco2)cc1 | > 30 µM (inactive) |
| CCOc1cc(/C=N/Nc2ncnc(Cl)c2N)ccc1O | 29.6 µM |
| CC(=O)c1c(O)ccc2c(-c3ccccc3)cc(=O)oc12 | > 30 µM (inactive) |
| COc1ccc(CNc2cc(NCCCO)c([N+](=O)[O-])c3nonc23)cc1 | 13.3 µM |

| SMILES | AC50 |
| --- | --- |
| CN(C)C(=S)Nc1ccc([N+](=O)[O-])cc1 | > 30 µM (inactive) |
| CCOC(=O)N1CCc2c(sc3nc4n(c(=O)c23)N=C(C)CS4)C1 | > 30 µM (inactive) |
| CCOC(=O)N1CC=C2C(C#N)=C(N)C(C#N)(C#N)[C@H](c3cccs3)C2C1 (stereo partly drawn) | 23.1 µM |
| C#CCOCCOCCOCCNc1nc(N2CCN(C(=O)CCCCCCCCCCNC(=O)[C@H](CCCCN)n3cc(C)nn3)CC2)nc(N2CCN(C(=O)CCCCCCCCCCNC(=O)[C@H](CCCN=C(N)N)n3cc(C[C@@H](C)CC)nn3)CC2)n1 | > 30 µM (inactive) |
| COc1ccc(CC(=O)NCCc2cnc[nH]2)cc1 | > 30 µM (inactive) |
| CCOC(=O)c1nnn(-c2nonc2-n2cccc2)c1C | > 30 µM (inactive) |
| Cc1ccc(NC(=O)c2cc(-n3cnnc3)ccc2Cl)c(C)c1 | > 30 µM (inactive) |
| COc1ccc(-c2cc(C(F)(F)F)nc(SCC(=O)NCc3cccs3)n2)cc1 | > 30 µM (inactive) |
| CCOC(=O)C1=C(C)NC(C)=C(C(=O)OCC)C1c1sccc1C | > 30 µM (inactive) |
| COc1cc(CN2CCN(Cc3ccc(C)cc3)CC2)c([N+](=O)[O-])cc1OC | > 30 µM (inactive) |
| COc1ccccc1N1CCN(C(=O)c2cc(-c3ccccc3)on2)CC1 | > 30 µM (inactive) |
| Oc1ccc(-c2nnc(-c3ccccc3)c(-c3ccccc3)n2)cc1 | > 30 µM (inactive) |
| CCOC(=O)c1nnn(-c2nonc2N)c1-c1ccccc1Cl | 8.37 µM |
| CC1CCCC(C)N1C(=O)COC(=O)c1c[nH]c2ccccc12 (stereo not drawn) | > 30 µM (inactive) |
| CC(C)(C)OC(=O)N1CCC(NC(=O)c2nc[nH]c2C(=O)NC2CCN(C(=O)OC(C)(C)C)CC2)CC1 | > 30 µM (inactive) |
| S=C(Nc1cccnc1)Nc1ccccn1 | > 30 µM (inactive) |
| O=C(CSc1nc2[nH]ncc2c(=O)n1-c1ccccc1Br)NCc1ccccc1Cl | > 30 µM (inactive) |
| C/C(=N\NC(=O)c1nnn(-c2nonc2N)c1-c1cccs1)c1cccnc1 | 1.33 µM |
| COc1cccc(-c2cc(C(=O)N3CCN(c4ccccc4OC)CC3)no2)c1 | > 30 µM (inactive) |
| COc1ccc(NC(=O)c2nnn(Cc3ccc(SC)cc3)c2N)c(OC)c1 | > 30 µM (inactive) |
| COC(=O)c1sccc1NC(=O)c1ccccc1 | > 30 µM (inactive) |
| CCn1c(=O)[nH]c(=O)c2c(N)c(C(=O)c3ccccc3OC)sc21 | 16.8 µM |
| O=C(O)c1ccc2c(c1Nc1ccccc1)C(=O)c1ccccc1C2=O | 18.6 µM |
| COc1cc(C(=O)Oc2cc(C)cc(C)c2)cc(OC)c1OC | > 30 µM (inactive) |
| CC(C)(C)NC(=O)CSc1ncccc1-c1nc2ccccc2[nH]1 | > 30 µM (inactive) |
| CC1(C)Cc2c(sc3nn[nH]c(=O)c23)CO1 | > 30 µM (inactive) |

| SMILES | AC50 |
| --- | --- |
| Cc1ccc(-n2nnnc2CSc2nnc(-c3ccc(O)cc3)o2)cc1 | 5.51 µM |
| CCOC(=O)C1=C(CC)OC(N)=C(C#N)C1c1ccc(NC(C)=O)cc1 (stereo not drawn) | > 30 µM (inactive) |
| Cc1ccccc1N=Nc1c(O)[nH]c2ccccc12 | > 30 µM (inactive) |
| COc1ccc(C(=O)NCC(=O)N/N=C(C)\C=C\c2ccccc2)cc1OC | > 30 µM (inactive) |
| COc1ccc(-c2noc(CSc3nc(-c4ccccc4)cc(=O)[nH]3)n2)cc1 | > 30 µM (inactive) |
| N#CCCn1cc(/C=N/O)c(-c2ccc(Cl)cc2)n1 | 21 µM |
| CCOC(=O)c1sc(NC(=O)C2CC2)cc1C | > 30 µM (inactive) |
| Cc1ccc(-c2nnc(CSc3nnc(C)s3)o2)cc1 | > 30 µM (inactive) |
| CCOC(=O)c1cc(C(=O)OCC)c2cc(Br)ccc2n1 | > 30 µM (inactive) |
| C/C(=N\NC(=O)c1nnn(-c2nonc2N)c1CN(C)c1ccccc1)c1ccc(O)cc1 | > 30 µM (inactive) |
| Cc1ccc(N(CC(O)CN2CCCCC2)S(=O)(=O)c2ccc(C)cc2)cc1 (stereo not drawn) | > 30 µM (inactive) |
| CCOc1ccc(N=C2NC(=O)SC2CC(=O)OC)cc1 (stereo not drawn) | > 30 µM (inactive) |
| O=C(Cn1c(NCCO)nc2ccccc21)c1ccc([N+](=O)[O-])cc1 | > 30 µM (inactive) |
| O=C(COC(=O)Cc1ccsc1)Nc1ccc(Cl)cn1 | 28.4 µM |
| COc1ccc2cc(C(N)=O)c(=Nc3ccccc3)oc2c1 | > 30 µM (inactive) |
| COc1cc2c(ccc3cc(OC)c(OC)c(O)c32)cc1O | 20.8 µM |
| CCOC(=O)C1CCN(c2c(C(=O)c3ccccc3)cnc3ccc(Cl)cc23)CC1 | > 30 µM (inactive) |
| Cc1c(C(=O)OC2CCCCC2)[nH]c2c1C(=O)CC(C)(C)C2 | > 30 µM (inactive) |
| Cc1nc2c(C)cccn2c1/C(O)=C1\C(=O)C(=O)N(CCN2CCOCC2)C1c1cccs1 (stereo not drawn) | > 30 µM (inactive) |
| Nc1ncc(-c2ccccc2)c(-c2ccc(OCc3ccccc3)cc2O)n1 | > 30 µM (inactive) |
| Cc1nc(SCC(=O)Nc2nc3ccccc3s2)n[nH]1 | > 30 µM (inactive) |
| CCc1cc2c(N3CCN(c4nnc(CC)s4)CC3)ncnc2s1 | 16 µM |
| COC(=O)c1ccc(CSc2n[nH]c(=S)s2)o1 | > 30 µM (inactive) |
| Brc1ccc(-c2nc3ncccn3c2NC2CCCCC2)o1 | 2.61 µM |
| COc1ccc(S(=O)(=O)NC(C)C(=O)O)cc1 (stereo not drawn) | > 30 µM (inactive) |
| CCCCCCCNc1nc(Cl)nc(NCCO)n1 | > 30 µM (inactive) |

| SMILES | AC50 |
| --- | --- |
| O=C1/C(=C/c2cccc([N+](=O)[O-])c2)N2CCC1CC2 | > 30 µM (inactive) |
| Cc1nc2sc(C(N)=O)c(N)c2c2c1CCCC2 | 28 µM |
| C#CCOCCOCCOCCNc1nc(N2CCN(C(=O)[C@H](CCC(=O)O)n3cc([C@@H](N)CCCCN)nn3)CC2)nc(N2CCN(C(=O)[C@H](CCC(=O)O)n3cc([C@@H](N)CCCCN)nn3)CC2)n1 | > 30 µM (inactive) |
| Cc1sc2ncnc(NCCCN3CCCC3=O)c2c1C | 21.5 µM |
| CCOc1ccccc1NC(=O)Nc1ccc(Cl)cc1 | > 30 µM (inactive) |
| Nc1nonc1-n1nnc(C(=O)N/N=C/c2ccccc2Cl)c1-c1ccccc1 | > 30 µM (inactive) |
| N#Cc1c(Nc2ccccc2)c(C=O)c[nH]c1=O | > 30 µM (inactive) |
| O=C(NC1=NCCS1)c1ccc(Cl)cc1 | > 30 µM (inactive) |
| CCSc1nnc2ccc(-c3cccs3)nn12 | > 30 µM (inactive) |
| Cc1ccnc(NC(=O)Cn2c(=O)oc3cc(S(=O)(=O)N4CCCC4)ccc32)c1 | 26.9 µM |
| O=C(NC(=S)NCC1COc2ccccc2O1)c1ccccc1 (stereo not drawn) | > 30 µM (inactive) |
| COc1cc(C2c3sc(=O)[nH]c3SC3C(=O)N(c4ccc(Br)cc4)C(=O)C32)ccc1O (stereo not drawn) | > 30 µM (inactive) |
| CCC(C)[C@H](NC(=O)NCc1ccc(Cl)cc1)C(=O)OC (stereo partly drawn) | > 30 µM (inactive) |
| COc1cccc(-n2c(SCC(=O)NC3CCCC3)nnc2-c2ccco2)c1 | > 30 µM (inactive) |
| COc1ccc(Nc2nc(Cl)c(C=O)s2)cc1 | > 30 µM (inactive) |
| COc1ccc(/C=C2\Oc3cc(OCC(=O)N4CC(O)C[C@H]4C(=O)O)ccc3C2=O)cc1OC (stereo partly drawn) | > 30 µM (inactive) |
| COc1ccccc1Nc1nc(C)cc(C)n1 | > 30 µM (inactive) |
| CCN(CC)C(=O)c1oc2ccc(S(=O)(=O)N3CCCCCC3)cc2c1C | > 30 µM (inactive) |
| COC(=O)c1cc(O)c(OCc2ccccc2)c(O)c1 | > 30 µM (inactive) |
| O=[N+]([O-])c1ccc(N/N=C/c2cn(Cc3ccc(F)cc3)c3ccccc23)nc1 | > 30 µM (inactive) |
| O=C(Nc1cccc(C(=O)NC2CCCCC2)c1)c1ccccc1 | > 30 µM (inactive) |
| COC(=O)CNc1nc(Cl)nc(NC2CCCCC2)n1 | > 30 µM (inactive) |
| O=C(O)c1[nH]c2ccc([N+](=O)[O-])cc2c1-c1ccccc1 | 11 µM |
| O=C(CNC(=O)c1ccccc1)N/N=C/C=C/c1ccccc1 | > 30 µM (inactive) |
| COC(=O)c1cn(-c2ccccc2)nc1-c1cccnc1 | > 30 µM (inactive) |
